Read-outs that look alike come from different tables or passages of the source.
Experiments:
human μ opioid receptor [1] = target: T1, human μ opioid receptor (Homo sapiens, UniProt P35372); experiment: Opioid receptor binding assay, [3H]DAMGO (μ)
human κ opioid receptor [2] = target: T2, human κ opioid receptor (Homo sapiens, UniProt P41145); experiment: Opioid receptor binding assay, [3H]U69,593 (κ); details: for K: δ / K: μ: ratio of Ki values
human δ opioid receptor [3] = target: T3, human δ opioid receptor (Homo sapiens, UniProt P41143)
[4] = tested on: morphine's blockade of PGE2-induced diarrhea; experiment: PGE2 model of gut motility; assay type: in vivo, mice
Description: To assess the effects of novel, peripherally acting opioid antagonists, we used a PGE2 (a prostaglandin) model of gut motility. PGE2 induces diarrhea within 15 minutes of an intraperitoneal (IP) injection (0.1 mg/kg) in mice.
Mice (n=10/group) were given either an IP injection or oral (PO) administration (via gavage) of a novel opioid antagonist (0-3 mg/kg, IP; 0-30 mg/kg, PO) and placed in a Plexiglas pie cage (Braintree Scientific, Braintree, Mass.). Each pie cage holds up to 10 mice and is 21.5 cm in diameter and 7.5 cm in height. Individual chambers are 5 cm (base) and 9 cm (length). […] 30 minutes later mice were treated with PGE2 (0.1 mg/kg, IP) and again returned to the pie cage. During the final observation, the presence or absence of diarrhea was recorded 15 minutes following PGE2 administration. Mice were only tested once. Saline-saline (10 mL/kg, IP) and saline-morphine were the positive control groups and all results were compared to the saline-morphine treatment group. Data represent the percent of mice with PGE2-induced diarrhea at the time of the final observation.

[5] = tested on: morphine-induced antinociception (tail flick); experiment: Tail flick antinociception test; assay type: in vivo, mice; details: for effect on response to morphine, tail flick: oral
Description: Antinociception to acute thermal stimuli was assessed using a commercially available tail flick apparatus (Columbus Instruments, Columbus, Ohio). The tail flick test is purported to be primarily a […] reflexive response assay. In this standard model, mice are gently restrained and their tail is placed over a thermal beam. Once the beam is turned on (instant on; 9.3 watts), the time required to reflexively flick the tail is recorded. The maximum response latency (MRL) was set to 10 seconds to avoid potential thermal injury associated with longer exposure times. If there is no response after 10 seconds, mice are removed and the maximum response latency (MRL; 10 s) is recorded.
Mice (n=10/group) were first tested in the tail flick test to determine a baseline response. […] The mice were administered different doses of an opioid antagonist (IP or PO, 60 minutes prior to testing in the tail flick test). […] All results are compared to the saline-morphine treatment group mean response latency.

[6] = tested on: morphine-induced antinociception (hot plate); experiment: Hot plate antinociception test; assay type: in vivo, mice
Description: Antinociception to acute thermal stimuli was assessed using a commercially available hot plate apparatus (Columbus Instruments, Columbus, Ohio). The hot plate test is purported to be a supraspinal assay of nociception. The hot plate procedure involves placing each mouse on a heated surface and activating a timer. Mice were placed individually on a hot plate (25.4 cm×25.4 cm surrounded by an acrylic box to prevent the animal from escaping); surface temperature=55° C.) and the response latency to lick either hind paw was recorded. The maximum response latency (MRL) was set to 60 seconds to avoid potential thermal injury associated with longer exposure times. The mouse is removed from the heated surface when it either licks a hind paw in response to the heat or after 60 seconds has elapsed. The latency to respond is recorded and the mouse is returned to its home cage.
Mice (n=10/group) were first tested to determine a baseline response. […] Mice were then administered different doses of an opioid antagonist (IP or PO, 60 minutes prior to testing on the hot plate test). […] All results are compared to the saline-morphine treatment group mean response latency.

[7] = PK evaluation in rats (plasma, LC-MS/MS); assay type: in vivo; details: oral administration, FIG. 4
Description: Animals were dosed with the example compound and blood samples were collected for 2 hours using the following method. Rats were briefly anesthetized with 1-2% isoflurane and blood samples (approximately […] of whole blood) from a lateral tail vein were collected into tubes containing EDTA. The tubes were centrifuged at 10K×g for 2 minutes to separate plasma. Plasma was pipetted into microcentrifuge vials and stored at −80° C. until plasma levels were determined by liquid chromatography-mass spectrometry/mass spectrometry (LC-MS/MS) (modification of Baranczewski et al., 2006). The lower limit of quantitation (LOQ) for these studies was 1.0 ng/mL and the coefficient of variation for the assay was <4.4%. The mean concentration of the example compound in plasma was calculated for each time point. […]
A bioanalytical assay was developed and qualified for measurement of the example compound in rat plasma. […] The intra-day accuracy and precision were evaluated by analysis of each 80 ng/mL, 40 ng/mL, and 8 ng/mL assay control (n=5 at each concentration) on the same day. Accuracy was calculated as a percentage ratio of measured concentration to nominal concentration and precision was expressed as the coefficient of variation. […] accuracy and precision were evaluated for each 80 ng/mL, 40 ng/mL, and 8 ng/mL assay control over 10 different runs (n=26 for each control sample). […]

human κ opioid receptor [8] = target: T2, human κ opioid receptor; experiment: [35S]GTPγS binding assay, kappa (compound alone / with U50,488); assay type: biochemical; parameters: expressed in transfected cells
Description: Part 4. […] Binding was initiated by the addition of the membranes.

human μ opioid receptor [9] = target: T1, human μ opioid receptor; experiment: [35S]GTPγS binding assay, mu (compound alone / with DAMGO)
Description: In a final volume of 0.5 mL, 12 different concentrations of each test compound were incubated with 15 μg (κ), 10 μg (δ) or 7.5 μg (μ) of CHO cell membranes that stably expressed either the human κ or μ opioid receptor. The assay buffer consisted of 50 mM Tris-HCl, pH 7.4, 3 mM MgCl2, 0.2 mM EGTA, 3 μM GDP, and 100 mM NaCl. The final concentration of [35S]GTPγS was 0.080 nM. […] Binding was initiated by the addition of the membranes. […] Data are the mean Emax and EC50 values±S.E.M. from at least three separate experiments, performed in triplicate.

μ opioid receptors = details: cited from earlier work
κ opioid receptors = details: cited from earlier work
antinociception = details: cited from earlier work; for duration of action: 1 mg/kg ip in mice
human δ opioid receptor [10] = target: T3, human δ opioid receptor; experiment: biochemical
[11] = read-out: [3H]DAMGO (μ) Ki, CHO membranes, human receptor, mean ± SEM
[12] = read-out: [3H]U69,593 (K) Ki, CHO membranes, human receptor, mean ± SEM

T3 sequence (P41143 whole entry): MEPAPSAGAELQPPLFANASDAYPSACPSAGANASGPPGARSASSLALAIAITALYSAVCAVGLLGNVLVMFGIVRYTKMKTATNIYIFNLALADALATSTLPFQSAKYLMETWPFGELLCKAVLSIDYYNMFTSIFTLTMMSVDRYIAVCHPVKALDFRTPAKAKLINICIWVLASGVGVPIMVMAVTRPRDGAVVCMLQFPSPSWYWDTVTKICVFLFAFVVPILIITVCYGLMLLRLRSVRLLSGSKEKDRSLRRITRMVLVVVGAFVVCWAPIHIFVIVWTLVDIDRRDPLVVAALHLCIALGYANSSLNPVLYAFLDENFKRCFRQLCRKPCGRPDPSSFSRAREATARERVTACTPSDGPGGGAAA
T2 sequence (P41145 whole entry): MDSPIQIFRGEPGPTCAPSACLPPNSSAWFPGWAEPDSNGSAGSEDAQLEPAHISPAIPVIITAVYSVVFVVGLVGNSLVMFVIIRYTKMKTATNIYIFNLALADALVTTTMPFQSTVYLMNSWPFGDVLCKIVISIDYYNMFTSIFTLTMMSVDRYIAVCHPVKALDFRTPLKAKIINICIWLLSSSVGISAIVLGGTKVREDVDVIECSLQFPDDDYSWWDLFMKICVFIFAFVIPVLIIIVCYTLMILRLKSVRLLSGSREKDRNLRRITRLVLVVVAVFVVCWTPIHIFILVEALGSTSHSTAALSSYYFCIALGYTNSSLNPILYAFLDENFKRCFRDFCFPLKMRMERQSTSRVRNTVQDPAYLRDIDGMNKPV
T1 sequence (P35372 whole entry): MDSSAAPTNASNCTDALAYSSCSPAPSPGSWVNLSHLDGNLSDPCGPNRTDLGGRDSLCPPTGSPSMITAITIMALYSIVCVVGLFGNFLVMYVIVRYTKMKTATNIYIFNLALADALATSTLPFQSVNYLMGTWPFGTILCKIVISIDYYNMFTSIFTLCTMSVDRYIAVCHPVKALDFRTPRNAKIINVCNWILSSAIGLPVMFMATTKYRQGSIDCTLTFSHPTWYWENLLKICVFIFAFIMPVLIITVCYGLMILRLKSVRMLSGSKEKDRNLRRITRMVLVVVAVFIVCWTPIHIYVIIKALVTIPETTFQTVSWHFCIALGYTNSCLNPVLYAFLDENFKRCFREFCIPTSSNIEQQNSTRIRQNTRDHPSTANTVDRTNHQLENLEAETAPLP

C[N+]1(CC2CC2)CC[C@]23c4c5ccc(O)c4O[C@H]2C(=O)CC[C@@]3(O)[C@H]1C5 (stereo partly shown) [Compound 2, Naltrexone Methiodide, reference compound]
Ki (human μ opioid receptor [1]; [11]): 2 ± 0.27 nM | K: δ (human κ opioid receptor [2]): 143 | K: μ (human κ opioid receptor [2]): 0.32 | Ki (human κ opioid receptor [2]; [12]): 6.3 ± 0.46 nM

C[N+]1(CC2CC2)CC[C@]23c4c5ccc(C(N)=O)c4O[C@H]2C(=O)CC[C@@]3(O)[C@H]1C5 (stereo partly shown) [Compound 4, 3-Carboxamido-naltrexone methiodide]
melting point: 189 to 190 °C | [3H]Naltrindole (δ) inhibition (human δ opioid receptor [3]; @ 10 μm): 31% inh. @ 10 μm | K: δ (human κ opioid receptor [2]): 143 | K: μ (human κ opioid receptor [2]): 0.18 | Ki (human κ opioid receptor [2]; [12]): 210 ± 22 nM

C[N+]1(CC2CC2)CC[C@]23CC(=O)CC[C@@]2(O)[C@H]1Cc1ccc(C(N)=O)c(O)c13 (stereo partly shown) [Compound 6, 3-Carboxamido-4-hydroxy-naltrexone methiodide]
activity in blocking PGE2-induced diarrhea ([4]; mice, doses of 1-10 mg/kg, both routes (IP, PO)): very good activity | reversal of the effects of morphine on PGE2-induced diarrhea ([4]; mice, each route, IP and PO, FIG. 1): dose-dependent reversal of the effects of morphine | blocking the analgesic effects of morphine, tail flick ([5]; mice, IP route): moderately effective | blocking the effects of morphine, tail flick ([5]; mice, oral administration): much less effective | effect on response to morphine, tail flick ([5]; mice, 10 mg/kg): did not affect the response to morphine | effect on response to morphine, tail flick ([5]; mice, maximum dose 30 mg/kg, FIG. 2): only partially reverse | blocking the analgesic effects of morphine, hot plate ([6]; mice, IP route, FIG. 3): marginally effective | change from the baseline morphine response, hot plate ([6]; mice, IP, 3 mg/kg): 20-25% | effect on the response to morphine, hot plate ([6]; mice, orally, doses up to 30 mg/kg): no effect | absorption [7]: low | melting point: 197 to 198 °C | Ki (human δ opioid receptor [3]; read-out: [3H]Naltrindole (δ) Ki, CHO membranes, human receptor, mean ± SEM): 280 ± 21 nM | agonist properties at the κ opioid receptor (human κ opioid receptor [8]; compound alone): did not display any agonist properties | Emax (human κ opioid receptor [8]; compound alone, Mean ± S.E, read-out: Kappa Cmpd. Alone Emax): 3 ± 2.6% | IC50 (human κ opioid receptor [8]; with 100 nM U50,488, Mean ± S.E): 7800 ± 530 nM | Ki (human μ opioid receptor [1]; [11]): 1.3 ± 0.13 nM | K: μ (human κ opioid receptor [2]): 0.17 | Ki (human κ opioid receptor [2]; [12]): 7.7 ± 0.9 nM | Emax (human μ opioid receptor [9]; read-out: Mu Cmpd. Alone Emax): -0.28 ± 0.39% | IC50 (human μ opioid receptor [9]; read-out: Mu With DAMGO IC50, with 200 nM DAMGO, Mean ± S.E): 52 nM | Mu With DAMGO Imax (human μ opioid receptor [9]; with 200 nM DAMGO, Mean ± S.E): 96 ± 1.2%

CC1C2Cc3ccc(O)cc3C1(C)CC[N+]2(C)CC1CC1 (stereo not shown) [Compound 8, Cyclazocine methiodide]
melting point: 165 to 168 °C | K: δ (human κ opioid receptor [2]): 95 | K: μ (human κ opioid receptor [2]): 0.2

C[C@H]1C2Cc3ccc(C(N)=O)cc3[C@@]1(C)CCN2CC1CC1 [Compound 8-CAC, 8-carboxamidocyclazocine]
affinity for μ opioid receptors (μ opioid receptors): high affinity | affinity for κ opioid receptors (κ opioid receptors): high affinity | duration of action (antinociception): 15 h | antinociception activity (antinociception; in vivo, mice): high antinociception activity

CC1C2Cc3ccc(C(N)=O)cc3C1(C)CC[N+]2(C)CC1CC1 (stereo not shown) [Compound 10, 8-Carboxamido-cyclazocine methiodide]
melting point: 237 to 238 °C | Ki (human δ opioid receptor [10]): 360 ± 6.5 nM | Ki (human μ opioid receptor [1]): 1.4 ± 0.19 nM | Ki (human κ opioid receptor [2]): 17 ± 1.2 nM | K: δ (human κ opioid receptor [2]): 21 | K: μ (human κ opioid receptor [2]): 0.082

C[N@+]1(CC2CC2)CC[C@]23CCCC[C@@]2(O)[C@H]1Cc1ccc(C(N)=O)c(O)c13.[Cl-] [Compound 14, (17R)-17-(Cyclopropylmethyl)-4,14-dihydroxy-17-methylmorphinan-17-ium-3-carboxamide chloride]
effect on morphine's ability to block PGE2-induced diarrhea ([4]; IP administration at 3 mg/kg): reduces morphine's ability to block PGE2-induced diarrhea | difference from baseline, tail flick ([5]; even at 30 mg/kg): no statistical difference from baseline | central activity (hot plate) ([6]; hot plate test): poor central activity | dose at which a statistical difference from baseline is first seen, hot plate ([6]; hot plate test): 30 mg/kg | hot plate dose relative to dose required in the PGE2 test ([6]; hot plate vs PGE2 test): 3 to 10 times higher dose

C[C@H]1[C@H]2Cc3ccc(O)cc3[C@]1(C)CCN2CC1CC1 [cyclazocine]
duration of action (antinociception): 2 h
